Entries after “also recorded” stand apart in the source; their conditions may differ. Read-outs that look alike come from different tables or passages of the source.
Columns and labels:
[1] = system: Aβ40 and Aβ42 production, CHO cells stably transfected with human APP695; assay: Secreted Aβ40/Aβ42 ELISA in CHO cells expressing human APP (CHO-APP cells); assay type: cell-based, Chinese hamster; design: key to Aβ42-lowering activity: Aβ42-lowering activity (“Yes”); no profound effects (“No”); non-determined (“ND”); Ginsenosides that affected cell viability are indicated as “Cytotoxic.”
Method: The CHO cells were treated with the indicated compounds (at 50 μg/ml) for 8 hrs. Aβ42 levels in the medium were measured by ELISA and normalized to intracellular full-length APP.
The potential effects of ginsenosides and their analogues in treating AD were examined. First, a number of ginsenosides were screened based on their effects on Aβ generation. The effects of various ginsenosides on Aβ (e.g., Aβ40 and Aβ42) production was initially accessed by incubating the Chinese hamster ovary (CHO) cells expressing human APP(CHO-APP cells) with each ginsenoside purified from unprocessed ginseng (known as “white ginseng”). These representative ginsenosides included Rb1, Rb2, Rc, Rd, Re, Re, Rg1 and Rg2 and differ in their side chains and sugar moieties.
After 8 hours of incubation, the media were collected and the levels of secreted Aβ40 and Aβ42 were determined by ELISA.

[2] = system: Aβ42 production, CHO-APP/ΔE9PS1 cells; assay: Secreted Aβ ELISA in CHO cells co-expressing human APP and FAD mutant PS1 (ΔE9, L286V); assay type: cell-based, Chinese hamster
Method: The effects of Rg5 on the Aβ42 generation were much smaller as compared to Rgk351 and Rk1.
FIG. 10 depicts the effects of native ginsenosides on Aβ42 production. CHO cells stably transfected with human APP695 together with either wild-type (A, CHO-APP/PS1 cells) or ΔE9 FAD mutant (B, CHO-APP/ΔE9PS1 cells) forms of PS1 were used. Cells were treated with the indicated compounds (at 50 μM) for 8 hrs. Levels of secreted Aβ40 and Aβ42 in the medium were determined by ELISA and normalized to intracellular full-length APP. In CHO-APP/PS1 cells, average Aβ amounts in control samples were 320 pM for Aβ40 and 79 pM for Aβ42. The relative levels of Aβ and Aβ42 were normalized to values obtained from non-treated and vehicle-treated cells and are shown as % to control+s.d.). One of three representative experiments are shown.
CHO-APP/PS1 (A) and CHO-APP/ΔE9PS1 (B) cells were treated with the indicated compounds at 50 μM for 8 hrs and the levels of secreted Aβ40 and Aβ42 were determined as described in FIG. 1. […] The PS1-ΔE9 FAD mutation diminished the Aβ42 response to Rk1 treatment (B).

[3] = system: full-length APP and APP C-terminal fragments, Neuro2a-APPsw cells; assay: Western blot analysis of APP processing in neuro2a cells expressing APPsw; assay type: cell-based, mouse
Text: FIG. 13. depicts an analysis of APP processing after Rk1 treatment. Steady-state levels of full-length APP and APP C-terminal fragments (APP-CTFs) were examined by Western blot analysis using anti-R1 antibody. […] Correlated Aβ42 levels for each sample are shown in the bottom panel.

[4] = target: T1, γ-secretase cleavage of APP (AICD) (Homo sapiens, UniProt P49768); assay: Cell-free generation of AICD from membrane fractions of 293 cells overexpressing APP; assay type: biochemical
T1 construct: Membrane fractions isolated from 293 cells overexpressing either APP (A), Notch-AE (B) or p75-AE (C); endogenous in cells; host or cells: 293 cells (membrane fractions); only the substrates APP, Notch-ΔE and p75-ΔE are overexpressed
Method: (§1) Membrane fractions isolated from 293 cells overexpressing either APP (A), Notch-AE (B) or p75-AE (C) and incubated in the presence of indicated compounds: Compound E (CpdE, general γ-secretase inhibitor), Rgk351, Rk1 and sulindac sulfide (SS).

[5] = target: T2, γ-secretase cleavage of Notch1 (NICD) (Homo sapiens, UniProt P49768); assay: Cell-free generation of NICD from membrane fractions of 293 cells overexpressing Notch-AE; assay type: biochemical
T2 construct: Membrane fractions isolated from 293 cells overexpressing either APP (A), Notch-AE (B) or p75-AE (C); endogenous in cells; host or cells: 293 cells (membrane fractions); only the substrates APP, Notch-ΔE and p75-ΔE are overexpressed
Method: as §1

[6] = target: T3, γ-secretase cleavage of p75 neurotrophin receptor (p75-ICD) (Homo sapiens, UniProt P49768); assay: Cell-free generation of p75-ICD from membrane fractions of 293 cells overexpressing p75-AE; assay type: biochemical
T3 construct: Membrane fractions isolated from 293 cells overexpressing either APP (A), Notch-AE (B) or p75-AE (C); endogenous in cells; host or cells: 293 cells (membrane fractions); only the substrates APP, Notch-ΔE and p75-ΔE are overexpressed
Method: as §1

γ-secretase = γ-secretase (Homo sapiens, UniProt P49768); assay: Cell-free γ-secretase assay (CHAPSO-solubilized membrane fractions, recombinant substrates, Aβ ELISA); assay type: biochemical
Method: (A) CHAPSO-solubilized membrane fractions were incubated with recombinant γ-secretase substrates together with the indicated compounds (at 100 μM) and the levels of Aβ42 and Aβ40 were determined by ELISA as described (27-29). (B) Dose-response of Aβ40 and Aβ42-lowering activity of Rk1 and (20S)Rg3 in a cell-free γ-secretase assay.
Next, the inhibitory effects of Rk1 and (20S)Rg3 on Aβ generation in an in vitro γ-secretase assay was studied. […] In contrast, naproxen, an NSAID without Aβ42-lowering activity, had no effects on Aβ42 production (FIG. 15A).

[7] = system: Aβ40 and Aβ42 secretion, primary embryonic cortical neurons; assay: Aβ secretion in primary embryonic cortical neurons derived from Tg2576 transgenic mice; assay type: cell-based, mouse
Text: Treatment of Rk1 and Rg3 decreased the level of secreted Aβ40 and Aβ42.

[8] = system: Aβ42 production in mammalian cells; conditions: Tae-Wan Kim et al., cited from earlier work
γ-secretase complex = γ-secretase complex (Homo sapiens, UniProt P49768); conditions: partially purified γ-secretase complex; cited from earlier work

In the case of `C=C(CCC=C(C)C)[C@H]1CC[C@]2(C)[C@@H]1[C@H](O)C[C@@H]1[C@@]3(C)CC[C@H](O[C@@H]4O[C@H](CO)[C@@H](O)[C@H](O)[C@H]4O[C@@H]4O[C@H](CO)[C@@H](O)[C@H](O)[C@H]4O)C(C)(C)[C@@H]3CC[C@]12C` [Rk1], the “generation of Aβ42 (Aβ42 levels in the medium, ELISA, normalized to intracellular full-length APP)” value ([1]; 50 μg/ml, 8 hrs, FIG. 4) is reported as “reduce the generation of Aβ42”, the “Aβ42-lowering effect compared with other agents” value ([1]; CHO-APP cells) is reported as “most effective” and the IC50 ([1]; CHO-APP cells, FIG. 12A, read-out: IC50 of Aβ42 lowering activity) is reported as roughly 20 µM. The “preference for Aβ42 vs. Aβ40 in cell-based assay” value ([1]; FIG. 6 / FIG. 12B) was “preferentially reduced Aβ42 (vs. Aβ40); also recorded: preferentially lowers Aβ42 (vs. Aβ40); also recorded: rather selective to Aβ42; also recorded: primarily affect Aβ42 production”, the “Aβ42 in the medium, dose-response” value ([1]; dose-dependent, FIG. 5 / FIG. 12A) was “reduced Aβ42; also recorded: lower Aβ42 in a dose-dependent manner” and the “production of Aβ42 in cells” value ([1]; general statement) was “lower the production of Aβ42”. The “concentration at which secretion of Aβ40 was affected” value ([1]; only at very high concentration) was roughly 100 µM, the Aβ40 production ([1]; overnight treatment, FIG. 12B) was “slightly affected” and the Aβ42 production ([1]; overnight treatment, FIG. 12B) was “reduce Aβ42 production”. For the same compound, the Aβ42-lowering activity ([1]; summary of Tables 1-3) was “Yes”, the “Aβ42-lowering response in PS1 ΔE9 FAD mutant cells compared to PS1 wild-type cells” value ([2]; 50 μM, 8 hrs, FIG. 11B vs 11A) was “diminished” and the Aβ42 levels ([2]; CHO cells co-expressing human APP and FAD mutant presenilin 1 (delta E9, L286V), FIG. 8) was “reduced the Aβ42 levels”. The “full-length APP levels” value ([3]; Neuro2a-APPsw cells) was “did not affect”, the “APP C-terminal fragments, steady-state levels” value ([3]; neuro2a cells expressing APPsw) was “increased accumulation; also recorded: up-regulated” and the “cell-free generation of AICD” value [4] was “does not significantly affect; also recorded: not affected”. For the same compound, the “cell-free generation of NICD” value [5] was “does not significantly affect; also recorded: not affected”, the “cell-free generation of p75-ICD” value [6] was “does not significantly affect; also recorded: not affected” and the “Aβ generation in a cell-free γ-secretase assay” value (γ-secretase; FIG. 15) was “inhibits Aβ generation”. For the same compound, the “Aβ42 generation in vitro” value (γ-secretase; cell-free γ-secretase assay, FIG. 15 (100 μM in A)) was “inhibit the Aβ42 production; also recorded: potently inhibited”, the “Aβ40 generation in vitro” value (γ-secretase; cell-free γ-secretase assay, FIG. 15B) was “inhibited both Aβ40 and Aβ42 with a similar potency” and the IC50 (γ-secretase; cell-free γ-secretase assay, FIG. 15B, read-out: IC50 for Aβ40) was 27 ± 3 µM. The IC50 (γ-secretase; cell-free γ-secretase assay, FIG. 15B, read-out: IC50 for Aβ42) was 32 ± 5 µM, the “level of secreted Aβ40” value [7] was “decreased” and the “level of secreted Aβ42” value [7] was “decreased”. The “production of Aβ42 in mammalian cells” value ([8]; patent application pending) was “lower the production of Aβ42”, the “relative effectiveness in reducing Aβ42 levels” value [8] was “most effective” and the “Aβ42 production in a cell-free assay” value (γ-secretase complex) was “inhibit the Aβ42 production”.
